Source: patent US20210008137A1, “EXTRACTS OF COPRINUS COMATUS AND THEIR USE FOR REGULATING THE PILOSEBACEOUS UNIT IN A HUMAN” (Symrise AG, priority 2017, published 2021)

Tested on: human sebaceous glands (hSGs)
Experiment: Sebum content of ex-vivo cultured human sebaceous glands (lipids/proteins ratio)
Type: cell-based
Conditions: 5 μM, positive control; for Sebum content in hSGs, Average as % ratio of the control group: day 6 of organ culture
Method: At the end of the culture time, the sebum was extracted and quantified from each experimental group of hSGs and then normalized by the proteins extracted from the residual hSG material (mg lipids/mg proteins). As a result, the biological activity of the tested compounds is inferred by comparing the lipids/proteins ratio of the treated glands with that of the control group. Using micro-scissors and tweezers, hSGs were isolated from the pilosebaceous units of a scalp skin sample. […] After 24 hours of culture the viability of the glands was assessed via resazurin assay and then, having attested their good viability, the culture medium was substituted with the same medium supplemented with experimental extracts, whereas the control group received again the standard medium. The culture medium was renewed every other day. At day six of the organ culture, after having preventively verified the good viability of the hSGs via resazurine assay, each group of hGSs was collected and analyzed for quantifying the sebum content. […] Methods are described in detail in WO2016020339 A8. The amounts of normalized lipids obtained from the treated groups, i.e. the sebum produced by each group of hSGs, were expressed in percentages with respect to the value obtained from the control group, in order to point out the regulatory effect performed by the experimental treatment.

`COc1cc(CNC(=O)CCCC/C=C/C(C)C)ccc1O` [capsaicin, Capsaicin] was tested, and the “Reduction of the sebum content of the hSGs in comparison with the control group” value (Table 6 experiment) was 26.5%, the “Sebum content in hSGs, Average as % ratio of the control group” value (Table 6 experiment) was 73.5% and the “Sebum content in hSGs, Average as % ratio of the control group” value (Table 7 experiment) was 88.3%.
